In patent US10858342B2, “Bicyclic imidazole derivatives useful for the treatment of renal diseases, cardiovascular diseases and fibrotic diseases” (Boehringer Ingelheim International GmbH, priority 2016, dated 2020):
Read-outs that look alike come from different tables or passages of the source.

Assays:
Assay type in all cases: biochemical, cynomolgus monkey
[1] = biological target: cortisol synthase (CYP11B1) (Macaca fascicularis, UniProt A0A2K5ULY1); assay: Inhibition of cortisol synthesis (cynomolgus adrenal mitochondria, cortisol by mass spectrometry)
Method: The aldosterone synthase and cortisol synthase inhibition assays employ cynomolgus adrenal gland mitochondria as the source of aldosterone synthase (CYP11B2) and cortisol synthase (CYP11B1). Mitochondria are prepared from frozen cynomolgus monkey adrenal glands according to Method A described in by J. D. McGarry et al. (Biochem. J., 1983, 214, 21-28), with a final resuspension in the AT buffer described in R. Yamaguchi et al. (Cell Death and Differentiation, 2007, 14, 616-624), frozen as aliquots in liquid nitrogen and stored at −80° C. until use. One unit of CYP11B2 and CYP11B1 activity in these preparations is defined as the amount of enzyme that generates 1 pmol of product in one hour under the conditions described.
(§1) Assays are performed in 96-well format in a final volume of 60 microL/well, containing 100 mM potassium phosphate, pH 7.4, 1% (v/v) DMSO, and additionally, 2 μM of corticosterone and 50 units of CYP11B2 activity. Reactions are started by the addition of NADPH to 1 mM and allowed to proceed for 90 minutes at 37° C. Reactions are terminated by the addition of 60 μL of MeCN containing an internal standard for mass spectrometry. One hundred microliters are then transferred to a glass filter plate and centrifuged at 570×g for 5 minutes and the filtrate is collected. Reaction product aldosterone is quantified by mass spectrometry. To determine the assay blank value (0% activity), NADPH is omitted from some reactions.
Dose dependent inhibition is quantified by the inclusion of compound at various concentrations. Maximum activity (100%) is defined by reactions containing NADPH, but without compound. Activities at each concentration are expressed as a percentage of the maximum activity (y-axis) and plotted against concentration of compound (x-axis) and the concentration corresponding to 50% activity (IC50) determined using the XLFit curve-fitting program using a 4-parameter logistic model.
Assays are performed as for aldosterone synthase except for the use of 150 units of CYP11B1, 11-deoxycortisol as substrate and cortisol measured as product.

[2] = tested on: aldosterone synthase (CYP11B2); assay: Inhibition of aldosterone synthase (cynomolgus adrenal mitochondria, aldosterone by mass spectrometry); conditions: selectivity for aldosterone synthase inhibition over cortisol synthase (CYP11B1) inhibition, fold
Method: (§2) The aldosterone synthase and cortisol synthase inhibition assays employ cynomolgus adrenal gland mitochondria as the source of aldosterone synthase (CYP11B2) and cortisol synthase (CYP11B1). […] One unit of CYP11B2 and CYP11B1 activity in these preparations is defined as the amount of enzyme that generates 1 pmol of product in one hour under the conditions described.
(§3) The compounds of the invention may be evaluated for aldosterone synthase inhibition by the following assay:
as §1
(§4) Dose dependent inhibition is quantified by the inclusion of compound at various concentrations. Maximum activity (100%) is defined by reactions containing NADPH, but without compound.

[3] = biological target: aldosterone synthase (CYP11B2) (Macaca fascicularis, UniProt A0A2K5UPL9); assay: as above; conditions: 2 μM corticosterone substrate, 50 units CYP11B2, 90 min, 37° C.; read-out: Aldosterone Inhibition IC50
Method: as §2, §3, §1, §4

[4] = 11-deoxycortisol substrate, 150 units CYP11B1; read-out: Cortisol Inhibition IC50

Sequence of aldosterone synthase (CYP11B2) (Macaca fascicularis, UniProt A0A2K5UPL9) (A0A2K5UPL9 1-503): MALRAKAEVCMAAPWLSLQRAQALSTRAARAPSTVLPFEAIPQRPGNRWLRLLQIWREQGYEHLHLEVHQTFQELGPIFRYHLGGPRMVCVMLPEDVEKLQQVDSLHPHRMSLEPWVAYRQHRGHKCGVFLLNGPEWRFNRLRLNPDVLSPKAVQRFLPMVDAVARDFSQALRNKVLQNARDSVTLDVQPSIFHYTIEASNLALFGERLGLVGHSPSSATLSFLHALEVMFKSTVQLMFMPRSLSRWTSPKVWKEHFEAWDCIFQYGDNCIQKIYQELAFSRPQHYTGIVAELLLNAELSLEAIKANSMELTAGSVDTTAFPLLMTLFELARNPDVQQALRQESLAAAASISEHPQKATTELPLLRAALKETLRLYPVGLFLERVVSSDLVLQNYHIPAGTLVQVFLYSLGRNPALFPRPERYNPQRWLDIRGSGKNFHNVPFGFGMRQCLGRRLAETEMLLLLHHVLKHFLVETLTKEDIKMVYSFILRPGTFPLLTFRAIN

CC1(C)CC(=O)c2c(ncn2-c2ccc(Cl)nc2)C1 [C-ABT, 3-(6-Chloro-pyridin-3-yl)-6,6-dimethyl-3,5,6,7-tetrahydro-benzoimidazol-4-one]
IC50 [1, 4]: 6900 nM
Selectivity [2]: 30
IC50 [3]: 230 nM

CC1(C)CC(=O)c2c(ncn2-c2ccc3c(c2)OCO3)C1 [C-ABU, 3-Benzo[1,3]dioxol-5-yl-6,6-dimethyl-3,5,6,7-tetrahydro-benzoimidazol-4-one]
IC50 [1, 4]: 4200 nM
Selectivity [2]: 120
IC50 [3]: 34 nM

Cc1cc(-n2cnc3c2C(=O)CC(C)(C)C3)ccc1C#N [C-ABV, 4-(5,5-Dimethyl-7-oxo-4,5,6,7-tetrahydro-benzoimidazol-1-yl)-2-methyl-benzonitrile]
IC50 [1, 4]: 130 nM
Selectivity [2]: 20
IC50 [3]: 6.6 nM

COC(=O)c1ccc(-n2cnc3c2C(=O)CC(C)(C)C3)cc1 [C-ABW, 4-(5,5-Dimethyl-7-oxo-4,5,6,7-tetrahydro-benzoimidazol-1-yl)-benzoic acid methyl ester]
IC50 [1, 4]: 7500 nM
Selectivity [2]: 24
IC50 [3]: 310 nM

CC1(C)CC(=O)c2c(ncn2-c2ccc(C#N)cc2)C1 [C-ABX, 4-(5,5-Dimethyl-7-oxo-4,5,6,7-tetrahydro-benzoimidazol-1-yl)-benzonitrile]
IC50 [1, 4]: 1300 nM
Selectivity [2]: 80
IC50 [3]: 17 nM

CC1(C)CC(=O)c2c(ncn2-c2cccc(C(F)(F)F)c2)C1 [C-ABZ, 6,6-Dimethyl-3-(3-trifluoromethyl-phenyl)-3,5,6,7-tetrahydro-benzoimidazol-4-one]
IC50 [1, 4]: 27000 nM
Selectivity [2]: 370
IC50 [3]: 73 nM

CC1(C)CC(=O)c2c(ncn2-c2ccccc2)C1 [C-ACA, 6,6-Dimethyl-3-phenyl-3,5,6,7-tetrahydro-benzoimidazol-4-one]
IC50 [1, 4]: 12000 nM
Selectivity [2]: 46
IC50 [3]: 250 nM

Cc1ccc(-n2cnc3c2C(=O)CC(C)(C)C3)cc1 [C-ACB, 6,6-Dimethyl-3-p-tolyl-3,5,6,7-tetrahydro-benzoimidazol-4-one]
IC50 [1, 4]: 4400 nM
Selectivity [2]: 200
IC50 [3]: 22 nM

CN1C(=O)CCc2cc(-n3cnc4c3C(=O)CCC4)ccc21 [C-ACD, 1-Methyl-6-(7-oxo-4,5,6,7-tetrahydro-benzoimidazol-1-yl)-3,4-dihydro-1H-quinolin-2-one]
IC50 [1, 4]: 55000 nM
Selectivity [2]: 920
IC50 [3]: 60 nM

O=C1CC2(CCC2)Cc2ncn(-c3ccc(F)c(F)c3)c21 [C-ACE]
IC50 [1, 4]: 630 nM
Selectivity [2]: 32
IC50 [3]: 20 nM

N#Cc1ccc(-n2cnc3c2C(=O)CC2(CCC2)C3)cc1Cl [C-ACG, 3-(4-Cyano, 3-chlorophenyl)-6,6-spirocyclobutyl-3,5,6,7-benzimidazolo-4-one]
IC50 ([1]; read-out: Cortisol Inhibition IC50; 11-deoxycortisol substrate, 150 units CYP11B1): 93 nM
Selectivity [2]: 7.5
IC50 [3]: 12 nM

CN1C(=O)CCc2cc(-n3cnc4c3C(=O)CC3(CC3)C4)ccc21 [C-ACH, 3-(1-Methyl-2-oxo-3,4-dihydroquinolin-6-yl)spiro[5,7-dihydrobenzimidazole-6,1′-cyclopropane]-4-one]
IC50 [1, 4]: 4900 nM
Selectivity [2]: 300
IC50 [3]: 16 nM

CC1(C)CC(=O)c2c(ncn2-c2ccc(C(F)(F)F)cc2)C1 [C-ACI, 6,6-Dimethyl-3-(4-trifluoromethyl-phenyl)-3,5,6,7-tetrahydro-benzoimidazol-4-one]
IC50 [1, 4]: 18000 nM
Selectivity [2]: 290
IC50 [3]: 62 nM

CC1(C)CC(=O)c2c(ncn2[C@H]2C[C@@H]3CC[C@H]2C3)C1 [C-ACL, 3-(1S,2S,3R)-Bicyclo[2.2.1]hept-2-1-6,6-dimethyl-3,5,6,7-tetrahydro-benzoimidazol-4-one]
IC50 [1, 4]: 16000 nM
Selectivity [2]: 87
IC50 [3]: 180 nM

COc1ccc2c(c1)CCC(n1cnc3c1C(=O)CC(C)(C)C3)C2 (stereo not drawn) [C-ACN, 3-(6-Methoxy-1,2,3,4-tetrahydro-naphthalen-2-yl)-6,6-dimethyl-3,5,6,7-tetrahydro-benzoimidazol-4-one]
IC50 [1, 4]: 11000 nM
Selectivity [2]: 460
IC50 [3]: 24 nM
